Data on 14 compounds can be found in patent US12441768B2, “Compositions and methods for treating endometriosis” (EndoMet Biosciences, Inc., priority 2018, dated 2025).

*1 amine or outer side, *2 acyl side, *3 side chain or, on linkers, in order; H or OH if unused. Where a SMILES comes first, the peptide text is derived from it. Bridges are numbered along the chain shown (N, C = ends). [ ]: non-standard residue; d: D form. Glutaryl = O=C(CCCC(=O)[*:2])[*:1]; NMeNva = CCC[C@H](NC)C(=O)O Where only a bound is given, the exact number is not on record here.

In the test the target is T1, β-catenin (Homo sapiens, UniProt P35222).
T1 sequence (P35222 1-781): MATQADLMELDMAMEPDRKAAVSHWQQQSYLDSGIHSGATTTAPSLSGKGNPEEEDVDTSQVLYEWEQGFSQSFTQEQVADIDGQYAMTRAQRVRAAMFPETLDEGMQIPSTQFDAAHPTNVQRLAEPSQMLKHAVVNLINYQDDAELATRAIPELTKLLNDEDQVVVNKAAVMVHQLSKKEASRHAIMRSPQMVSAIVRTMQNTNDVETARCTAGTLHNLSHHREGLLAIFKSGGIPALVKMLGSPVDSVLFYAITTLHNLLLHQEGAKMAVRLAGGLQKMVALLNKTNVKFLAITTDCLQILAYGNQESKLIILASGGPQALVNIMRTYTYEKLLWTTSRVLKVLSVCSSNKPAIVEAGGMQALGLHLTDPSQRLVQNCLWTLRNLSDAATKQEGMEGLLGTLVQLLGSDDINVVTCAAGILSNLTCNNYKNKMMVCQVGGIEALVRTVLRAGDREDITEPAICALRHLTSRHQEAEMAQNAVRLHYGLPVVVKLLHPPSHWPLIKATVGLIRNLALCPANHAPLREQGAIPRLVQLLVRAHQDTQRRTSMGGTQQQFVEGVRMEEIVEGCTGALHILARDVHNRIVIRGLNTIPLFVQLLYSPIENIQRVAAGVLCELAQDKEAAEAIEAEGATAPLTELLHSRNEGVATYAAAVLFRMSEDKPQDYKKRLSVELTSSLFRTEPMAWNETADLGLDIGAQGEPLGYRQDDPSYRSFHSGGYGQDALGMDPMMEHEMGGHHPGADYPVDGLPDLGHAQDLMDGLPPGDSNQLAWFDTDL
Briefly: KD50 measurement using competitive fluorescence polarization (FP) with labelled TCF4. Format: binding. The following applies: for Kd / β-Cat FP Hill slope: fluorescence polarization, β-catenin; for Kd: read-out: β-Cat FP KD. The text has this:
Fluorescence polarization (FP) is another method used to analyze protein-ligand interactions. This methodology measures the change in fluorescence light emitted by a labelled compound free vs. conjugated to another compound in solution. Upon binding of the fluorescent molecule to a complex, polarization increases because of limited rotation of the fluorescent tracer. Competitive FP is often utilized in drug screens as it is formatted for high throughput screens in a plate format. This immunoassay is performed by introducing a non-conjugated drug to compete for binding to the labelled competitor-ligand complex, leading to a reduction in polarization. TCF4 protein is utilized for the competitive assay as (1) this protein influences the full activation of the Wnt pathway and (2) shares homology with the β-catenin inhibitors. Exemplary methodology is described in Example 13. Data were analyzed and plotted in Microsoft Excel (Microsoft, Redmond, WA).
5 nM of labelled TCF4 protein was added to solution of 100 nM of β-catenin and incubated at room temperature in 96-well plates (Greiner 96 Flat transparent plates, Millipore Sigma, Carlsbad CA). Varying concentrations of β-catenin inhibitor candidate (SEQ ID NO: 404) were then added in a series of serial dilutions from 10 nM to 30 uM of inhibitor in different wells of the plate. The fluorescence polarization was read by Infinite M1000 (Tecan, Baldwin Park CA) at excitation wavelength of 470 nm and measured at emission wavelength of 520 nm. […] The experiments were performed three times and data were analyzed and plotted in Microsoft Excel (Microsoft, Redmond, WA).
For orientation: Polarisation of emitted light reports the rotation of a fluorescent probe.

One may read the Kd as a measure of binding affinity in units of concentration. As to `CCCCCCCCCCCCCCCCCC(=O)N[C@@H](Cc1c[nH]c2ccccc12)C(=O)N(C)[C@@H](Cc1c[nH]c2ccccc12)C(=O)N[C@@H](CCC(=O)O)C(=O)NC(C)(CO)C(=O)N[C@H](C(=O)N[C@@H](CC(C)C)C(=O)N[C@@H](CC(=O)O)C(=O)N[C@@H](CCC(=O)O)C(=O)N[C@@H](Cc1c[nH]cn1)C(=O)NC(C)(C(=O)N[C@@H](CCC(N)=O)C(=O)N[C@@H](CCCNC(=N)N)C(=O)N[C@H](C(=O)N[C@@H](Cc1c[nH]c2ccccc12)C(=O)O)C(C)C)C(C)C)[C@@H](C)CC` (single isomer, unassigned) [SEQ ID NO: 393/500, Stearyl-W-NmeW-E-aMeS-ILDEH-aMeV-QRVW-COOH], the Kd was more than 30 µM.

As to `CC[C@H](NC(=O)[C@@H](NC(=O)[C@H](CC(C)C)NC(=O)[C@H](CC1CCCCC1)NC(=O)[C@H](Cc1c[nH]c2ccccc12)NC(=O)[C@H](CCCCN)NC(=O)COCCOCCNC(=O)[C@H](CCCNC(=N)N)NC(=O)[C@H](CCCNC(=N)N)NC(=O)[C@H](CCCNC(=N)N)NC(=O)[C@H](CCC(N)=O)NC(=O)[C@H](CCCNC(=N)N)NC(=O)[C@H](CCCNC(=N)N)NC(=O)[C@H](CCCCN)NC(=O)[C@H](CCCCN)NC(=O)[C@@H](N)CCCNC(=N)N)[C@@H](C)CC)C(=O)N[C@@H](C)C(=O)N[C@@H](Cc1c[nH]c2ccccc12)C(=O)N[C@@H](CC(=O)O)C(=O)O` [282/493] (HELM PEPTIDE1{R.K.K.R.R.Q.R.R.R.[O=C(COCCOCCN[*:1])[*:2]].K.W.[Cha].L.I.[Abu].A.W.D}$$$$V2.0), the “β-Cat FP Hill slope” value is listed as 0.77. As for `CC[C@H](C)[C@@H]1NC(=O)[C@@H](NC(=O)[C@H](CCC(N)=O)NC(=O)[C@H](C)N(C)C(=O)[C@H](Cc2c[nH]c3ccccc23)NC(C)=O)CCCCNC(=O)CC[C@@H](C(=O)N[C@@H](Cc2c[nH]cn2)C(=O)N[C@H](C(=O)N[C@@H](CCC(N)=O)C(=O)N[C@@H](CCCNC(=N)N)C(=O)N[C@H](C(=O)N[C@@H](Cc2c[nH]c3ccccc23)C(=O)NCC(N)=O)C(C)C)C2CCCCC2)NC(=O)[C@H](CC(=O)O)NC(=O)[C@H](CC(C)C)NC1=O` [SEQ ID NO: 404, cyclo-AcNH-W-NmeA-QK*ILDE*H-Chg-QRVWG-NH2] (HELM PEPTIDE1{[ac].W.[meA].Q.K.I.L.D.E.H.[O=C([C@@H](N[*:1])C1CCCCC1)[*:2]].Q.R.V.W.G.[am]}$PEPTIDE1,PEPTIDE1,5:R3-9:R3$$$V2.0), the “Binding to β-catenin (fluorescence polarization)” value (5 nM labelled TCF4, 100 nM β-catenin, 10 nM to 30 uM inhibitor) is listed as “binds β-catenin in a concentration-dependent manner”. `CCC[C@H]1C(=O)N[C@@H](CCC(N)=O)C(=O)N[C@@H](CO)C(=O)N[C@@H](CC(C)C)C(=O)N[C@@H](Cc2ccccc2)C(=O)N(C)[C@@H](CCC)C(=O)N2CCC[C@H]2C(=O)N2CCC[C@H]2C(=O)N(C)[C@@H](CCC)C(=O)N[C@H](C(N)=O)CCCCNC(=O)CCCC(=O)N[C@@H](CCSC)C(=O)N[C@@H](CCSC)C(=O)N1C` [compound 3] (MM[NMeNva]QSLF[NMeNva]PP[NMeNva]K-NH2; linker N-12 via Glutaryl): the “β-Cat FP Hill slope” value was 0.98 and the Kd was in the range of 10 to 30 µM.

Regarding `CCC[C@H]1C(=O)N[C@@H](Cc2c[nH]c3ccccc23)C(=O)N[C@@H](CC(C)C)C(=O)N[C@@H](CO)C(=O)N[C@@H](CCCNC(=N)N)C(=O)N[C@@H](CCC(N)=O)C(=O)N[C@@H](Cc2c[nH]c3ccccc23)C(=O)N[C@@H]([C@@H](C)CC)C(=O)N[C@@H](C(C)C)C(=O)N[C@H](C(N)=O)CCCCNC(=O)CCCC(=O)N[C@@H](CCSC)C(=O)N[C@@H](Cc2c[nH]c3ccccc23)C(=O)N1C` [compound 5] (HELM PEPTIDE1{M.W.[CCC[C@@H](C(=O)[*:2])N(C)[*:1]].W.L.S.R.Q.W.I.V.K.[am]}|CHEM1{[O=C(CCCC(=O)[*:2])[*:1]]}$PEPTIDE1,CHEM1,1:R1-1:R1|PEPTIDE1,CHEM1,12:R3-1:R2$$$V2.0), the “β-Cat FP Hill slope” value was 0.5 and the Kd lay within 1 to 10 µM. For `CC[C@H](C)[C@H](NC(=O)[C@H](CC(C)C)NC(=O)[C@H](Cc1ccccc1)NC(=O)[C@H](Cc1c[nH]c2ccccc12)NC(=O)[C@H](CCSC)NC(=O)[C@H](CCCNC(=N)N)NC(=O)[C@H](CO)NC(=O)[C@@H](N)CCSC)C(=O)N[C@@H](CO)C(=O)N[C@@H](Cc1ccccc1)C(=O)N[C@@H](Cc1c[nH]c2ccccc12)C(=O)N[C@@H](CCCCN)C(N)=O` [compound 6] (H-MSRMWFLISFWK-NH2), the Kd is more than 30 µM. For the compound `CC[C@H](C)[C@H](NC(=O)[C@H](CC(C)C)NC(=O)[C@H](Cc1ccccc1)NC(=O)[C@H](Cc1c[nH]c2ccccc12)NC(=O)[C@@H](N)CCSC)C(=O)N[C@@H](CO)C(=O)N[C@@H](Cc1ccccc1)C(=O)N[C@@H](Cc1c[nH]c2ccccc12)C(=O)N[C@@H](C)C(=O)O` [compound 7] (H-MWFLISFWA-OH), the “β-Cat FP Hill slope” value came out at 0.5 and the equilibrium dissociation constant (Kd) is 10 to 30 µM. With `CC[C@H](C)[C@H](NC(=O)[C@H](CC(C)C)NC(=O)[C@H](Cc1ccccc1)NC(=O)[C@H](Cc1c[nH]c2ccccc12)NC(=O)[C@@H](N)CCSC)C(=O)N[C@@H](CO)C(=O)N[C@@H](Cc1ccccc1)C(=O)N[C@@H](C)C(=O)NCC(=O)O` [compound 8] (H-MWFLISFAG-OH), the “β-Cat FP Hill slope” value is on record as 1.7 and the Kd lay in the range of 1 to 10 µM.

For the compound `CC[C@H](C)[C@H](NC(=O)[C@H](CC(C)C)NC(=O)[C@H](Cc1ccccc1)NC(=O)[C@H](Cc1c[nH]c2ccccc12)NC(=O)[C@@H](N)CCSC)C(=O)N[C@@H](CO)C(=O)N[C@@H](C)C(=O)N[C@@H](Cc1c[nH]c2ccccc12)C(=O)NCC(=O)O` [compound 9] (H-MWFLISAWG-OH), the “β-Cat FP Hill slope” value worked out at 0.51 and the equilibrium dissociation constant (Kd) was in the range of 1 to 10 µM. `CC[C@H](C)[C@H](NC(=O)[C@H](CC(C)C)NC(=O)[C@H](Cc1ccccc1)NC(=O)[C@H](Cc1c[nH]c2ccccc12)NC(=O)[C@@H](N)CCSC)C(=O)N[C@@H](C)C(=O)N[C@@H](Cc1ccccc1)C(=O)N[C@@H](Cc1c[nH]c2ccccc12)C(=O)NCC(=O)O` [compound 10] (H-MWFLIAFWG-OH): the “β-Cat FP Hill slope” value is reported as 0.73 and the Kd lay in the range of 1 to 10 µM.

As to `CSCC[C@H](N)C(=O)N[C@@H](Cc1c[nH]c2ccccc12)C(=O)N[C@@H](Cc1ccccc1)C(=O)N[C@@H](CC(C)C)C(=O)N[C@@H](C)C(=O)N[C@@H](CO)C(=O)N[C@@H](Cc1ccccc1)C(=O)N[C@@H](Cc1c[nH]c2ccccc12)C(=O)NCC(=O)O` [compound 11] (H-MWFLASFWG-OH), the “β-Cat FP Hill slope” value is reported as 1.31 and the Kd was in the range of 0.4 to 1 µM. The like results for `CC[C@H](C)[C@H](NC(=O)[C@H](C)NC(=O)[C@H](Cc1ccccc1)NC(=O)[C@H](Cc1c[nH]c2ccccc12)NC(=O)[C@@H](N)CCSC)C(=O)N[C@@H](CO)C(=O)N[C@@H](Cc1ccccc1)C(=O)N[C@@H](Cc1c[nH]c2ccccc12)C(=O)NCC(=O)O` [compound 12] (H-MWFAISFWG-OH) were, in that order, 0.5 and 1 to 10 µM. As to `CC[C@H](C)[C@H](NC(=O)[C@H](CC(C)C)NC(=O)[C@H](C)NC(=O)[C@H](Cc1c[nH]c2ccccc12)NC(=O)[C@@H](N)CCSC)C(=O)N[C@@H](CO)C(=O)N[C@@H](Cc1ccccc1)C(=O)N[C@@H](Cc1c[nH]c2ccccc12)C(=O)NCC(=O)O` [compound 13] (H-MWALISFWG-OH), the “β-Cat FP Hill slope” value stood at 0.86 and the Kd is 0.4 to 1 µM. Turning to `CC[C@H](C)[C@@H]1NC(=O)[C@H](CC(C)C)NC(=O)[C@H](Cc2ccccc2)NC(=O)[C@H](Cc2c[nH]c3ccccc23)NC(=O)[C@@H](N)CCCCNC(=O)CC[C@@H](C(=O)O)NC(=O)[C@H](Cc2c[nH]c3ccccc23)NC(=O)[C@H](Cc2ccccc2)NC(=O)[C@H](CO)NC1=O` [compound 226] (HELM PEPTIDE1{K.W.F.L.I.S.F.W.E}$PEPTIDE1,PEPTIDE1,1:R3-9:R3$$$V2.0), the “β-Cat FP Hill slope” value was determined as 0.69 and the Kd lay in the range of 1 to 10 µM.
